Activity calls are given as the source filed them. No cut-off for these calls is given here.
Experiments:
Plasmodium vivax [1] = test: Inhibition of N-terminal hexa-histidine-tagged Plasmodium vivax HGPRT at 29 uM using PRib-PP as substrate in presence of guanine by spectrophotometric method
Plasmodium falciparum [2] = test: Inhibition of Plasmodium falciparum HGXPRT at 29 uM using PRib-PP as substrate in presence of guanine by spectrophotometric method
[3] = target: T1, Hypoxanthine-guanine phosphoribosyltransferase (Homo sapiens, UniProt P00492); test: Inhibition of N-terminal hexa-histidine-tagged human HGPRT using PRib-PP as substrate in presence of guanine by Hanes plot analysis
T1 sequence (P00492 whole entry): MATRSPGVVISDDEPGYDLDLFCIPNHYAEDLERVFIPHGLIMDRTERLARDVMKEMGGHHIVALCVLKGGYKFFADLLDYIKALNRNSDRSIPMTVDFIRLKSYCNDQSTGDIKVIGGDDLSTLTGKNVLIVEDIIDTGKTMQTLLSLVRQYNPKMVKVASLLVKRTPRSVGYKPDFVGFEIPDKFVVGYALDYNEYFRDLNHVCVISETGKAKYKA

Plasmodium falciparum [4] = test: Antimalarial activity against Plasmodium falciparum D6 trophozoites assessed as reduction in [3H]-hypoxanthine incorporation preincubated for 96 hrs followed by [3H]-hypoxanthine addition at 48 hrs post start of experiment; format: functional
[5] = Stability of the compound in pH 7 solution; format: physicochemical; conditions: buffer
[6] = Cytotoxicity against human A549 cells after 4 days by coulter counting method; format: cell-based
Plasmodium falciparum [7] = test: Antimalarial activity against chloroquine/pyrimethamine-resistant Plasmodium falciparum W2 trophozoites assessed as reduction in [3H]-hypoxanthine incorporation preincubated for 96 hrs followed by [3H]-hypoxanthine addition at 48 hrs post start of experiment; format: functional
[8] = Inhibition of N-terminal hexa-histidine-tagged Plasmodium vivax HGPRT using PRib-PP as substrate in presence of guanine by Hanes plot analysis
Plasmodium falciparum [9] = test: Inhibition of Plasmodium falciparum HGXPRT at 32 uM using PRib-PP as substrate in presence of guanine by spectrophotometric method
[10] = Inhibition of Plasmodium falciparum HGXPRT using PRib-PP as substrate in presence of guanine by Hanes plot analysis
Plasmodium falciparum [11] = test: Inhibition of Plasmodium falciparum HGXPRT at 46 uM using PRib-PP as substrate in presence of guanine by spectrophotometric method
Plasmodium falciparum [12] = test: Inhibition of Plasmodium falciparum HGXPRT at 42 uM using PRib-PP as substrate in presence of guanine by spectrophotometric method
[13] = target: T2, Hypoxanthine-guanine phosphoribosyltransferase (Homo sapiens) (UniProt P00492); test: Inhibition of N-terminal hexa-histidine-tagged human HGPRT at 42 uM using PRib-PP as substrate in presence of guanine by spectrophotometric analysis
T2 sequence (whole entry): T1 sequence (P00492 whole entry)

Plasmodium vivax [14] = test: Inhibition of N-terminal hexa-histidine-tagged Plasmodium vivax HGPRT at 42 uM using PRib-PP as substrate in presence of guanine by spectrophotometric method
Plasmodium falciparum [15] = test: Inhibition of Plasmodium falciparum HGXPRT at 31 uM using PRib-PP as substrate in presence of guanine by spectrophotometric method
Plasmodium vivax [16] = test: Inhibition of N-terminal hexa-histidine-tagged Plasmodium vivax HGPRT at 31 uM using PRib-PP as substrate in presence of guanine by spectrophotometric method
Plasmodium falciparum [17] = test: Inhibition of Plasmodium falciparum HGXPRT at 35 uM using PRib-PP as substrate in presence of guanine by spectrophotometric method
[18] = target: T2, Hypoxanthine-guanine phosphoribosyltransferase (Homo sapiens); test: Inhibition of N-terminal hexa-histidine-tagged human HGPRT at 35 uM using PRib-PP as substrate in presence of guanine by spectrophotometric analysis
Plasmodium vivax [19] = test: Inhibition of N-terminal hexa-histidine-tagged Plasmodium vivax HGPRT at 35 uM using PRib-PP as substrate in presence of guanine by spectrophotometric method

Ki [3] [µM]	SMILES	IC50 (Plasmodium falciparum [4]) [µM]	Stability [5]	CC50 at 96 h [6] [µM]	IC50 (Plasmodium falciparum [7]) [µM]	Ki [8] [µM]	further results
9.7	O=c1[nH]cnc2c1nc(Br)n2CC(COCCP(=O)(O)O)COCCP(=O)(O)O	–	–	–	–	–	inhibition (Plasmodium vivax [1]): inactive; inhibition (Plasmodium falciparum [2]): inactive
–	CCOC(=O)[C@H](Cc1ccccc1)NP(=O)(CCOCC(COCCP(=O)(N[C@@H](Cc1ccccc1)C(=O)OCC)N[C@@H](Cc1ccccc1)C(=O)OCC)n1cnc2c(=O)[nH]cnc21)N[C@@H](Cc1ccccc1)C(=O)OCC	1.5	Stable	> 300	1.7	–	–
–	CCOC(=O)[C@H](Cc1ccccc1)NP(=O)(CCOCC(COCCP(=O)(N[C@@H](Cc1ccccc1)C(=O)OCC)N[C@@H](Cc1ccccc1)C(=O)OCC)Cn1c(Br)nc2c(=O)[nH]cnc21)N[C@@H](Cc1ccccc1)C(=O)OCC	–	–	43	–	–	–
0.25	Nc1nc2c(nc(Br)n2CC(COCCP(=O)(O)O)COCCP(=O)(O)O)c(=O)[nH]1	–	–	–	–	1.6	inhibition (Plasmodium falciparum [9]): inactive
0.1	Nc1nc2c(ncn2CC(COCCP(=O)(O)O)COCCP(=O)(O)O)c(=O)[nH]1	–	–	–	–	0.16	–
–	CCOC(=O)[C@H](Cc1ccccc1)NP(=O)(CCOCC(COCCP(=O)(N[C@@H](Cc1ccccc1)C(=O)OCC)N[C@@H](Cc1ccccc1)C(=O)OCC)Cn1ccc2c(=O)[nH]cnc21)N[C@@H](Cc1ccccc1)C(=O)OCC	–	Stable	23	–	–	–
19	Nc1nc2c(nc(Br)n2C(COCCP(=O)(O)O)COCCP(=O)(O)O)c(=O)[nH]1	–	–	–	–	153	Ki [10]: 4 µM
–	CCOC(=O)[C@H](Cc1ccccc1)NP(=O)(CCOCC(COCCP(=O)(N[C@@H](Cc1ccccc1)C(=O)OCC)N[C@@H](Cc1ccccc1)C(=O)OCC)Cn1cnc2c(=O)[nH]cnc21)N[C@@H](Cc1ccccc1)C(=O)OCC	1.7	Stable	66	4.6	–	–
–	CCOC(=O)[C@H](Cc1ccccc1)NP(=O)(CCOCC(COCCP(=O)(N[C@@H](Cc1ccccc1)C(=O)OCC)N[C@@H](Cc1ccccc1)C(=O)OCC)n1ccc2c(=O)[nH]c(N)nc21)N[C@@H](Cc1ccccc1)C(=O)OCC	0.8	Stable	> 300	1.1	–	–
1.5	O=c1[nH]cnc2c1ncn2CC(COCCP(=O)(O)O)COCCP(=O)(O)O	–	–	–	–	6	inhibition (Plasmodium falciparum [11]): inactive
–	O=c1[nH]cnc2c1ccn2C(COCCP(=O)(O)O)COCCP(=O)(O)O	–	–	–	–	–	inhibition (Plasmodium falciparum [12]): inactive; inhibition [13]: inactive; inhibition (Plasmodium vivax [14]): inactive
–	CCOC(=O)[C@H](Cc1ccccc1)NP(=O)(CCOCC(COCCP(=O)(N[C@@H](Cc1ccccc1)C(=O)OCC)N[C@@H](Cc1ccccc1)C(=O)OCC)Cn1c(Br)nc2c(=O)[nH]c(N)nc21)N[C@@H](Cc1ccccc1)C(=O)OCC	22.1	–	94	21.3	–	–
–	CCOC(=O)[C@H](Cc1ccccc1)NP(=O)(CCOCC(COCCP(=O)(N[C@@H](Cc1ccccc1)C(=O)OCC)N[C@@H](Cc1ccccc1)C(=O)OCC)n1ccc2c(=O)[nH]cnc21)N[C@@H](Cc1ccccc1)C(=O)OCC	–	Stable	130	–	–	–
17	O=c1[nH]cnc2c1ccn2CC(COCCP(=O)(O)O)COCCP(=O)(O)O	–	–	–	–	–	inhibition (Plasmodium falciparum [15]): inactive; inhibition (Plasmodium vivax [16]): inactive
–	CCOC(=O)[C@H](Cc1ccccc1)NP(=O)(CCOCC(COCCP(=O)(N[C@@H](Cc1ccccc1)C(=O)OCC)N[C@@H](Cc1ccccc1)C(=O)OCC)Cn1cnc2c(=O)[nH]c(N)nc21)N[C@@H](Cc1ccccc1)C(=O)OCC	5.1	Stable	> 300	6.9	–	–
–	CCOC(=O)[C@H](Cc1ccccc1)NP(=O)(CCOCC(COCCP(=O)(N[C@@H](Cc1ccccc1)C(=O)OCC)N[C@@H](Cc1ccccc1)C(=O)OCC)n1c(Br)nc2c(=O)[nH]cnc21)N[C@@H](Cc1ccccc1)C(=O)OCC	–	–	278	–	–	–
–	O=c1[nH]cnc2c1nc(Br)n2C(COCCP(=O)(O)O)COCCP(=O)(O)O	–	–	–	–	–	inhibition (Plasmodium falciparum [17]): inactive; inhibition [18]: inactive; inhibition (Plasmodium vivax [19]): inactive
4	Nc1nc2c(nc(Br)n2CC(COCP(=O)(O)O)COCP(=O)(O)O)c(=O)[nH]1	–	–	–	–	89	Ki [10]: 1 µM
–	CCOC(=O)[C@H](Cc1ccccc1)NP(=O)(CCOCC(COCCP(=O)(N[C@@H](Cc1ccccc1)C(=O)OCC)N[C@@H](Cc1ccccc1)C(=O)OCC)n1c(Br)nc2c(=O)[nH]c(N)nc21)N[C@@H](Cc1ccccc1)C(=O)OCC	4.4	–	–	7	–	–
3	O=c1[nH]cnc2c1ncn2C(COCCP(=O)(O)O)COCCP(=O)(O)O	–	–	–	–	21	Ki [10]: 0.7 µM
1	Nc1nc2c(ccn2CC(COCCP(=O)(O)O)COCCP(=O)(O)O)c(=O)[nH]1	–	–	–	–	1.5	–
–	CCOC(=O)[C@H](Cc1ccccc1)NP(=O)(CCOCC(COCCP(=O)(N[C@@H](Cc1ccccc1)C(=O)OCC)N[C@@H](Cc1ccccc1)C(=O)OCC)Cn1ccc2c(=O)[nH]c(N)nc21)N[C@@H](Cc1ccccc1)C(=O)OCC	0.8	Stable	95	2.1	–	–
–	CCOC(=O)[C@H](Cc1ccccc1)NP(=O)(CCOCC(COCCP(=O)(N[C@@H](Cc1ccccc1)C(=O)OCC)N[C@@H](Cc1ccccc1)C(=O)OCC)n1cnc2c(=O)[nH]c(N)nc21)N[C@@H](Cc1ccccc1)C(=O)OCC	10	Stable	> 300	9.4	–	–
5	Nc1nc2c(ccn2C(COCCP(=O)(O)O)COCCP(=O)(O)O)c(=O)[nH]1	–	–	–	–	49	Ki [10]: 6 µM

SMILES	Ki [3] [µM]	IC50 (Plasmodium falciparum [4]) [µM]	Stability [5]	CC50 at 96 h [6] [µM]	IC50 (Plasmodium falciparum [7]) [µM]	Ki [8] [µM]	further results
Nc1nc2c(ncn2C(COCCP(=O)(O)O)COCCP(=O)(O)O)c(=O)[nH]1	0.3	–	–	–	–	21	Ki [10]: 0.2 µM
